This note sets out measurements from patent US20070010671A1, “Novel quinazoline derivatives and methods of treatment related to the use thereof” (priority 2003, published 2007).

The test has as its target MCH receptor (Homo sapiens, UniProt Q99705). The experiment in a line: High throughput functional screening FLIPR/FDSS6000: inhibition of MCH-evoked intracellular Ca2+ changes. The class given is cell-based. The note with it: class by percent of control at 10^−7 M or by IC50; read-out: class. The procedure, abridged: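 Fluo4 fluorescence (Ex 488 nm, Em 530 nm) tracked MCH-evoked [Ca2+]i transients over 290 s by FLIPR or FDSS. Cells carried a constitutively active, non-endogenous receptor version. Compounds were added 3 min before a 50 nM MCH challenge.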

SMILES strings stand for the structures.

Turning to `CN(C)c1nc(N[C@H]2CC[C@@H](NCc3ccc(OC(F)(F)F)cc3)C2)nc2ccccc12` [Example 1047, N4,N4-dimethyl-N2-((1S,3R)-3-{[4-(trifluoromethoxy)benzyl]-amino}cyclopentyl)quinazoline-2,4-diamine], the IC50 is greater than 200 nM.
For `CN(C)c1nc(N[C@H]2CC[C@@H](NCc3ccc(Br)cc3OC(F)(F)F)C2)nc2ccccc12` [Example 1048, N2-((1S,3R)-3-{[4-bromo-2-(trifluoromethoxy)benzyl]-amino}cyclopentyl)-N4,N4-dimethylquinazoline-2,4-diamine], the IC50 was greater than 200 nM.
The result for `CN(C)c1nc(N[C@H]2CC[C@@H](NCc3ccc(F)c(F)c3)C2)nc2ccccc12` [Example 1049, N2-{(1S,3R)-3-[(3,4-difluorobenzyl)amino]cyclopentyl}-N4,N4-dimethylquinazoline-2,4-diamine] reads greater than 200 nM.
Take `CN(C)c1nc(N[C@H]2CC[C@@H](NC(=O)c3ccc(Oc4ccccc4F)nc3)CC2)nc2ccccc12` [Example 1050, N-(cis-4-{[4-(dimethylamino)quinazolin-2-yl]amino}cyclohexyl)-6-(2-fluorophenoxy)nicotinamide]: the IC50 is less than 50 nM.
As for `CN(C)c1nc(N[C@H]2CC[C@@H](NC(=O)c3ccc(Oc4ccccc4Cl)nc3)CC2)nc2ccccc12` [Example 1051, 6-(2-chlorophenoxy)-N-(cis-4-{[4-(dimethylamino)quinazolin-2-yl]amino}cyclohexyl)nicotinamide], the figure is greater than 200 nM; as for `CN(C)c1nc(N[C@H]2CC[C@@H](NC(=O)c3ccc(Oc4ccccc4Br)nc3)CC2)nc2ccccc12` [Example 1052, 6-(2-bromophenoxy)-N-(cis-4-{[4-(dimethylamino)quinazolin-2-yl]amino}cyclohexyl)nicotinamide], greater than 200 nM; as for `COc1ccccc1Oc1ccc(C(=O)N[C@H]2CC[C@@H](Nc3nc(N(C)C)c4ccccc4n3)CC2)cn1` [Example 1054, N-(cis-4-{[4-(dimethylamino)quinazolin-2-yl]amino}cyclohexyl)-6-(2-methoxyphenoxy)nicotinamide], less than 50 nM.
Turning to `COc1cccc(Oc2ccc(C(=O)N[C@H]3CC[C@@H](Nc4nc(N(C)C)c5ccccc5n4)CC3)cn2)c1` [Example 1056, N-(cis-4-{[4-(dimethylamino)quinazolin-2-yl]amino}cyclohexyl)-6-(3-methoxyphenoxy)nicotinamide], the IC50 is less than 50 nM.
Turning to `CN(C)c1nc(N[C@H]2CC[C@@H](NC(=O)c3ccc(Oc4cccc(C(F)(F)F)c4)nc3)CC2)nc2ccccc12` [Example 1057, N-(cis-4-{[4-(dimethylamino)quinazolin-2-yl]amino}cyclohexyl)-6-[3-(trifluoromethyl)phenoxy]nicotinamide], the IC50 is less than 50 nM.
Regarding `CN(C)c1nc(N[C@H]2CC[C@@H](NC(=O)c3ccc(Oc4ccc(F)cc4)nc3)CC2)nc2ccccc12` [Example 1059, N-(cis-4-{[4-(dimethylamino)quinazolin-2-yl]amino}cyclohexyl)-6-(4-fluorophenoxy)nicotinamide], the IC50 is greater than 200 nM.
Consider `CN(C)c1nc(N[C@H]2CC[C@@H](NC(=O)c3ccc(Oc4ccc(Cl)cc4)nc3)CC2)nc2ccccc12` [Example 1060, 6-(4-chlorophenoxy)-N-(cis-4-{[4-(dimethylamino)quinazolin-2-yl]amino}cyclohexyl)nicotinamide], for which the IC50 is less than 50 nM.
As for `CN(C)c1nc(N[C@H]2CC[C@@H](NC(=O)c3ccc(Oc4ccc(Br)cc4)nc3)CC2)nc2ccccc12` [Example 1061, 6-(4-bromophenoxy)-N-(cis-4-{[4-(dimethylamino)quinazolin-2-yl]amino}cyclohexyl)nicotinamide], the IC50 is greater than 200 nM.
As for `CN(C)c1nc(N[C@H]2CC[C@@H](NC(=O)c3ccc(Oc4ccc(OC(F)(F)F)cc4)nc3)CC2)nc2ccccc12` [Example 1062, N-(cis-4-{[4-(dimethylamino)quinazolin-2-yl]amino}cyclohexyl)-6-[4-(trifluoromethoxy)phenoxy]nicotinamide], the figure is greater than 200 nM; as for `CN(C)c1nc(N[C@H]2CC[C@@H](NC(=O)c3ccc(Oc4cc(F)cc(F)c4)nc3)CC2)nc2ccccc12` [Example 1063, 6-(3,5-difluorophenoxy)-N-(cis-4-{[4-(dimethylamino)quinazolin-2-yl]amino}cyclohexyl)nicotinamide], greater than 200 nM; as for `CN(C)c1nc(N[C@H]2CC[C@@H](NC(=O)c3ccc(Oc4cccc(F)c4F)nc3)CC2)nc2ccccc12` [Example 1064, 6-(2,3-difluorophenoxy)-N-(cis-4-{[4-(dimethylamino)quinazolin-2-yl]amino}cyclohexyl)nicotinamide], less than 50 nM.
`CN(C)c1nc(N[C@H]2CC[C@@H](NC(=O)c3ccc(Oc4ccc(F)c(F)c4)nc3)CC2)nc2ccccc12` [Example 1065, 6-(3,4-difluorophenoxy)-N-(cis-4-{[4-(dimethylamino)quinazolin-2-yl]amino}cyclohexyl)nicotinamide]: the IC50 is less than 50 nM.
On to `COc1cccc(Oc2ccc(C(=O)N[C@H]3CC[C@@H](Nc4nc(N(C)C)c5ccccc5n4)CC3)cn2)c1OC` [Example 1066, 6-(2,3-dimethoxyphenoxy)-N-(cis-4-{[4-(dimethylamino)quinazolin-2-yl]amino}cyclohexyl)nicotinamide], for which the IC50 was less than 50 nM.
Take `COc1cc(Cl)ccc1Oc1ccc(C(=O)N[C@H]2CC[C@@H](Nc3nc(N(C)C)c4ccccc4n3)CC2)cn1` [Example 1068, 6-(4-chloro-2-methoxyphenoxy)-N-(cis-4-{[4-(dimethylamino)quinazolin-2-yl]amino}cyclohexyl)nicotinamide]: the IC50 was 50 to 200 nM.
On to `CN(C)c1nc(N[C@H]2CC[C@@H](NC(=O)c3ccc(Oc4ccc(Cl)c(F)c4)nc3)CC2)nc2ccccc12` [Example 1069, 6-(4-chloro-3-fluorophenoxy)-N-(cis-4-{[4-(dimethylamino)quinazolin-2-yl]amino}cyclohexyl)nicotinamide], for which the IC50 is less than 50 nM.
As for `CN(C)c1nc(N[C@H]2CC[C@@H](NC(=O)c3ccc(Oc4ccc(F)c(Cl)c4)nc3)CC2)nc2ccccc12` [Example 1070, 6-(3-chloro-4-fluorophenoxy)-N-(cis-4-{[4-(dimethylamino)quinazolin-2-yl]amino}cyclohexyl)nicotinamide], the figure is 50 to 200 nM; as for `COc1cc(OC)cc(Oc2ccc(C(=O)N[C@H]3CC[C@@H](Nc4nc(N(C)C)c5ccccc5n4)CC3)cn2)c1` [Example 1071, 6-(3,5-dimethoxyphenoxy)-N-(cis-4-{[4-(dimethylamino)quinazolin-2-yl]amino}cyclohexyl)nicotinamide], 50 to 200 nM.
The result for `CN(C)c1nc(N[C@H]2CC[C@@H](NC(=O)c3ccc(Oc4cccc(Br)c4)nc3)CC2)nc2ccccc12` [Example 1072, 6-(3-bromophenoxy)-N-(cis-4-{[4-(dimethylamino)quinazolin-2-yl]amino}cyclohexyl)nicotinamide] reads greater than 200 nM; that for `CN(C)c1nc(N[C@H]2CC[C@@H](NC(=O)c3ccnc(Oc4cccc(Cl)c4)c3)CC2)nc2ccccc12` [Example 1073, 2-(3-chlorophenoxy)-N-(cis-4-{[4-(dimethylamino)quinazolin-2-yl]amino}cyclohexyl)isonicotinamide], 50 to 200 nM.
